Laboratory results: US4496591A, “Insecticidal bis-carbamate sulfides” (priority 1981, dated 1985)

Key:
Format in all cases: in vivo
Marigold = experiment: Phytotoxicity, marigold; parameters: key: 0: the compounds had no visible effects on that plant species; details: scale 0 to 10, eight pounds per acre, approximately two weeks
Procedure: (§1) Several species of the novel compounds were tested for their phytotoxic effects. Two flats of each species of plants to be tested were planted 8-14 days before testing and grown at greenhouse conditions. One flat was sprayed with the chemical to be tested at the rate of eight pounds per acre while the other control flat was sprayed with solvent only. The results of such testing were recorded approximately two weeks after treatment and are reproduced in Table III below.
(§2) Numerical ratings from "0" to "10" are used to designate the degree of activity.

Sorghum = experiment: Phytotoxicity, sorghum; parameters: key: 0: the compounds had no visible effects on that plant species; details: scale 0 to 10, eight pounds per acre, approximately two weeks
Procedure: as §1, §2

flax = experiment: Phytotoxicity, flax; parameters: key: 0: the compounds had no visible effects on that plant species; details: scale 0 to 10, eight pounds per acre, approximately two weeks
Procedure: as §1, §2

Snapbean = experiment: Phytotoxicity, snapbean; parameters: key: 0: the compounds had no visible effects on that plant species; details: scale 0 to 10, eight pounds per acre, approximately two weeks
Procedure: as §1, §2

Cucumber = experiment: Phytotoxicity, cucumber; parameters: key: 0: the compounds had no visible effects on that plant species; details: scale 0 to 10, eight pounds per acre, approximately two weeks
Procedure: as §1, §2

[1] = test system: root-knot nematode, Meloidogyne incognita var. acrita; experiment: Nematocide test; parameters: key: 1: severe galling, equal to untreated plants; 2: moderate galling; 3: light galling; 4: very light galling; 5: no galling, perfect control; details: 3.33 m.g. per jar, cucumber, approximately 3 weeks
Procedure: The test organism used was the infective migratory larvae of the root-knot nematode, Meloidogyne incognita var. acrita, reared in the greenhouse on roots of cucumber plants. Infected plants were removed from the culture, and the roots were chopped very finely. A small amount of this inoculum was added to a pint jar containing approximately 180 cc. of soil. The jars were capped and incubated for one week at room temperature. During this period eggs of the nematode were hatched, and the larval forms migrated into the soil.
Ten ml. of the test formulation were added to each of the two jars for each dosage tested. Following the addition of chemical, the jars were capped, and the contents thoroughly mixed on a ball mill for […].
The test compounds were formulated by a standard procedure of solution in acetone addition of an emulsifier, and dilution with water. Primary screening tests were conducted at 3.33 m.g. of the test compound per jar.
The jars were left capped at room temperature for a period of 48 hours, and the contents then transferred to 3 inch pots. Subsequently, the pots were seeded to cucumber as an indicator crop and placed in the greenhouse where they were cared for in the normal fashion for approximately 3 weeks.
The cucumber plants were then taken from the pots, the soil removed from the roots, and the amount of galling visually rated.
In the test for activity against nematodes activity was rated as follows: […]

[2] = test system: southern armyworm (Spodoptera eridania, (Cram.)) larvae; experiment: Southern armyworm leaf spray bait test; parameters: key: A: excellent control; B: partial control; C: no control at 500 ppm; details: 500 parts per million, three days
Procedure: (§3) Suspensions of the test compounds were prepared by dissolving one gram of compound in 50 milliliters of acetone in which had been dissolved 0.1 gram (10 percent of the weight of compound) of an alkylphenoxy polyethoxyethanol surfactant, as an emulsifying or dispersing agent. The resulting solution was mixed into 150 milliliters of water to give roughly 200 milliliters of a suspension containing the compound in finely divided form. The thus-prepared stock suspension contained 0.5 percent by weight of compound. The concentrations in parts per million by weight employed in the tests described hereinbelow were obtained by appropriate dilutions of the stock suspension with water. The test procedures were as follows:
Larvae of the southern armyworm (Spodoptera eridania, (Cram.)), reared on Tendergreen bean plants at a temperature of 80±5° F. and a reative humidity of 50±5 percent, constituted the test insects.
The test compounds were formulated by diluting the stock suspension with water to give a suspension containing 500 parts of test compound per million parts of final formulation. Potted Tendergreen bean plants of standard height and age were placed on a revolving turntable and sprayed with 100-110 milliliters of test compound formulation by use of a DeVilbiss spray gun set at 40 psig air pressure. This application, which lasted 25 seconds, was sufficient to wet the plants to run-off. As a control, 100-110 milliliters of a water-acetone-emulsifier solution containing no test compound were also sprayed on infested plants. When dry, the paired leaves were separated and each one was placed in a 9 centimeter Petri dish lines with moistened filter paper. Five randomly selected larvae were introduced into each dish and the dishes were closed. The closed dishes were labeled and held at 80°-85° F. for three days. Although the larvae could easily consume the whole leaf within twenty-four hours, no more food was added. Larvae which were unable to move the length of the body, even upon stimulation by prodding, were considered dead.
(§4) In these tests the pesticidal activity of the compounds at the indicated dosage rate against aphid, Southern Armyworm, Bean Beetle and housefly was rated as follows: […]

[3] = test system: house flies (Musca domestica, L.); experiment: Fly bait test; parameters: key: A: excellent control; B: partial control; C: no control at 500 ppm; details: 500 parts per million, sugar bait, twenty-four hours
Procedure: as §3
Four to six day old adult house flies (Musca domestica, L.), reared according to the specifications of the Chemical Specialties Manufacturing Association (Blue Book, McNair-Dorland Co., N.Y. 1954; pages 243-244, 261) under controlled conditions of 80±5° F. and 50±5 percent relative humidity, were the test insects. The flies were immobilized by anesthetizing them with carbon dioxide. Twenty-five immobilized individuals, males and females, were transferred to a cage consisting of a standard food strainer about five inches in diameter which was inverted over a wrapping-paper-covered surface. The test compounds were formulated by diluting the stock suspension with a 10 percent (by weight) sugar solution to give a suspension containing 500 parts of test compound per million parts of final formulation, by weight. Ten milliliters of the test formulation were added to a souffle cup containing a one-inch square of an absorbent cotton pad. This bait cup was introduced and centered on the blotting paper under the food strainer prior to admitting the anesthetized flies. The caged flies were allowed to feed on the bait for twenty-four hours, at a temperature of 80±5° F. and at a relative humidity of 50±5 percent.
as §4

[4] = test system: bean aphid (Aphis fabae Scop.); experiment: Bean aphid foliage spray test; parameters: key: A: excellent control; B: partial control; C: no control at 500 ppm; details: 500 parts per million, 24 hour
Procedure: as §3
Adults and nymphal stages of the bean aphid (Aphis fabae Scop.) reared on potted dwarf nasturtium plants at 68°-70° F. and 50±5 percent relative humidity, constituted the test insects. For testing purposes, the number of aphids per pot were standardized to 100-150 by trimming plants containing excess aphids.
The test compounds were formulated by diluting the stock suspension with water to give a suspension containing 500 parts of test compound per million parts of final formulation.
The potted plants (one pot per compound tested) infested with 100-150 aphids, were placed on a revolving turntable and sprayed with 100-110 milliliters of test compound formulation by use of a DeVilbiss spray gun set at 40 psig. air pressure. This application, which lasted 25 seconds, was sufficient to wet the plants to run-off. As a control, 100-110 milliliters of a water-acetone-emulsifier solution containing no test compound was also sprayed on infested plants. After spraying, the pots were placed on their sides on a sheet of white standard mimeograph paper which had been previously ruled to facilitate counting. Temperature and humidity in the test room during the 24 hour holding period were 68°-70° F. and 50±5 percent, respectively. Aphids which fell onto the paper and were unable to remain standing after being uprighted were considered dead. Aphids remaining on the plants were observed closely for movement and those which were unable to move the length of the body upon stimulation by prodding were considered dead.
as §4

[5] = test system: egg of the Southern armyworm (Spodoptera eridania (Cram.)); experiment: Southern armyworm ovicide test; parameters: key: A: excellent control; B: partial control; C: no control at 500 ppm; details: 500 parts per million, egg dip, four days
Procedure: as §3
The test organism was the egg of the Southern armyworm (Spodoptera eridania (Cram.)) as obtained from adults reared on Tendergreen bean plants at a temperature of 80±5° F. and a relative humidity of 50±5 percent. The eggs were laid on freezer paper (Marlon 717, Copco paper) and then cut into small sections containing one or two egg masses.
The test compounds were formulated by diluting the stock suspension with water to give a suspension containing 500 parts of test compound per million parts of final formulation. The egg masses were then dipped until they were thoroughly wet (5-10 seconds). They were then placed on a paper towel face up and were allowed to dry for 15-30 minutes. The dry eggs were placed in a 15×60 mm petri dish containing a cotton dental wick saturated with a 5 percent sodium chloride solution to maintain a high level of humidity. The closed dishes were labeled and held at a temperature of 80±5° F. for four days. Larvae that emerged from the egg, even if dead at the time of observation, were recorded as hatched.
as §4

[6] = test system: Mexican bean beetle (Epilachna varivestis, Muls.) larvae; experiment: Mexican bean beetle leaf spray test; parameters: key: A: excellent control; B: partial control; C: no control at 500 ppm; details: 500 parts per million, fourth instar larvae, three days
Procedure: as §3
Fourth instar larvae of the Mexican bean beetle (Epilachna varivestis, Muls.), reared on Tendergreen bean plants at a temperature of 80±5° F. and 50±5° F. percent relative humdity, were the test insects.
The test compounds were formulated by diluting the stock suspension with water to give a suspension containing 500 parts of test compound per million parts of final formulation. Tendergreen bean plants of standard height and age were placed on a revolving turntable and sprayed with 100-110 milliliters of test compound formulation by use of a DeVilbiss spray gun set at 40 psig air pressure. This application, which lasted 25 seconds, was sufficient to wet the plants to run-off. As a control, 100-110 milliliters of a water-acetone-emulsifier solution containing no test compound was also sprayed on infested plants. When dry, the paired leaves were separated and each was placed in a 9 centimeter Petri dish lined with moistened filter paper. Five randomly selected larvae were introduced into each dish, and the dishes were closed. The closed dishes were labeled and held at a temperature of 80±5° F., for three days. Although the larvae could easily consume the leaf within 24 to 48 hours, no more food was added. Larvae which were unable to move the length of the body, even upon stimulation, were considered dead.
as §4

Structure (SMILES)	Phytotoxicity rating, Marigold (Marigold)	Phytotoxicity rating, Sorghum (Sorghum)	Phytotoxicity rating, flax (flax)	Phytotoxicity rating, Snapbean (Snapbean)	Phytotoxicity rating, Cucumber (Cucumber)	Root-Knot Nematode, galling rating [1]	Southern Armyworm, pesticidal activity rating [2]	Housefly, pesticidal activity rating [3]	Aphids, pesticidal activity rating [4]	Southern Armyworm (egg), pesticidal activity rating [5]	Mexican Bean Beetle, pesticidal activity rating [6]
CSC(C)=NOC(=O)N(C)SN(C)C(=O)Oc1ccccc1C=O [drawing 25]	0	0	0	0	0	–	–	–	–	–	–
CSC(C)=NOC(=O)N(C)SN(C)C(=O)Oc1cccc(C(C)=O)c1 [drawing 26]	0	0	0	0	0	–	–	–	–	–	–
CSC(C)=NOC(=O)N(C)SN(C)C(=O)Oc1ccccc1C(C)=O	0	0	0	0	0	–	–	–	–	–	–
CSC(C)=NOC(=O)N(C)SN(C)C(=O)Oc1ccc(C(=O)c2ccccc2)cc1 [Compound 6]	–	–	–	–	–	4	A	A	A	A	A
COc1cc(C=O)ccc1OC(=O)N(C)SN(C)C(=O)ON=C(C)SC [Compound 5]	–	–	–	–	–	2	A	A	A	B	A
CSC(C)=NOC(=O)N(C)SN(C)C(=O)Oc1cc(C)c(C)cc1C(C)=O [Compound 9]	–	–	–	–	–	1	A	A	A	A	A
CSC(C)=NOC(=O)N(C)SN(C)C(=O)Oc1cccc(C(C)=O)c1 [Compound 1, S-Methyl-N-[[[N'-[[N"-[(3-acetylphenoxy)carbonyl]-N"-methylaminosulfenyl]]-N'-methylcarbamoyloxy]]]thioacetimidate]	–	–	–	–	–	5	A	A	A	A	A
